From patent US8586322B2, “Sandwich assay for immunosuppressant drugs” (Siemens Healthcare Diagnostics, Inc, priority 2012, dated 2013)

Tests used:
[1] = test system: monoclonal antibody 14H04; test: ACMIA cross-reactivity / binding of tacrolimus derivatives to monoclonal antibody 14H04; set-up: species or system mouse; details: ACMIA format
Experimental: The monoclonal antibody for region 14 may be identified by a screening method as follows: The binding region of an antibody clone was identified based on its binding properties to different tacrolimus derivatives such as metabolites and immunogens.
Measurements of tacrolimus derivatives by the ACMIA assay format were carried out according to the following procedure. Metabolites were obtained from Isotechnika Pharma Inc (Alberta, Canada) and Dr. Christistians Laboratory at University of Colorado in Denver, Colo. The tacrolimus derivative compounds such as immunogens were obtained from Siemens AG (Glasgow, Del.). The metabolite and immunogen cross-reactivity was measured using the ACMIA methodology described in U.S. Pat. No. 7,186,518, the relevant disclosure of which is incorporated herein by reference. Briefly, both clones were conjugated to β-galactosidase using a standard heterobifunctional SMCC (succinimidyl trans-4-(N-maleimidylmethyl)cyclohexane-1-carboxylate) linker according to known techniques. […] The cross reactivity was detected by testing the samples containing spiked metabolites and other tacrolimus derivatives such as the immunogens. […] Cross-reactivity was determined by dividing the apparent tacrolimus concentration by the concentration of added metabolite and expressing the result as a percentage.

monoclonal antibody 1E2 = test: ACMIA cross-reactivity / binding of tacrolimus derivatives to monoclonal antibody 1E2; set-up: species or system mouse; details: ACMIA format, 1E2-β-galactosidase conjugate, tacrolimus C32 fluorescein derivative chrome particles
Experimental: The monoclonal antibody for region 12 may be identified by the following screening method. […] Modification of the hydroxyl group linked to C24 weakened the binding of monoclonal antibody 1E2 to tacrolimus.
Measurements of tacrolimus derivatives by the ACMIA assay format were carried out according to the following procedure. Metabolites were obtained from Isotechnika Pharma Inc (Alberta, Canada) and Dr. Christistians Laboratory at University of Colorado in Denver, Colo. The tacrolimus derivative compounds such as immunogens were obtained from Siemens AG (Glasgow, Del.). The metabolite and immunogen cross-reactivity was measured using the ACMIA methodology described in U.S. Pat. No. 7,186,518, the relevant disclosure of which is incorporated herein by reference. Briefly, both clones were conjugated to β-galactosidase using a standard heterobifunctional SMCC (succinimidyl trans-4-(N-maleimidylmethyl)cyclohexane-1-carboxylate) linker according to known techniques. Chrome particles (immunoassay solid phase) were prepared by conjugating tacrolimus analogs to bovine immunoglobulin and then to polyaldehyde dextran coated chromium dioxide particles. The tacrolimus analog used for monoclonal antibody 14H04 was a tacrolimus C22 oxime compound. The analog used for monoclonal antibody 1E2 was a tacrolimus C32 fluorescein derivative immobilized on anti-fluorescein antibody coated chromium dioxide particles. The cross reactivity was detected by testing the samples containing spiked metabolites and other tacrolimus derivatives such as the immunogens. The assay signals obtained from the samples containing the spiked metabolites were compared to the signals obtained from the samples containing tacrolimus standards. Cross-reactivity was determined by dividing the apparent tacrolimus concentration by the concentration of added metabolite and expressing the result as a percentage.

cross-reactivity with monoclonal antibody 14H04 ([1]; spiked metabolite compared with tacrolimus standards)	binding to monoclonal antibody 1E2 (monoclonal antibody 1E2)	binding to monoclonal antibody 14H04 ([1]; 14H04-β-galactosidase conjugate, tacrolimus C22 oxime chrome particles)	Structure (SMILES)
no cross-reactivity	–	–	C=CCC1C=C(C)CC(C)CC(O)C2OC(O)(C(=O)C(=O)N3CCCCC3C(=O)OC(C(C)=CC3CCC(O)C(OC)C3)C(C)C(O)CC1=O)C(C)CC2OC (stereo not drawn) [15-O-demethyl tacrolimus, 15-O-desmethyl-tacrolimus]
–	removed the binding	–	C=CCC1C=C(C)CC(C)CC(OC)C2OC(O)(C(=O)C(=O)N3CCCCC3C(=O)OC(C(C)=CC3CCC(O)C(OC)C3)C(C)C(O)CC1=O)C(C)CC2O (stereo not drawn) [M1, 13-O-desmethyl-tacrolimus]
–	removed the binding	–	C=CCC1C=C(C)CC(C)CC(OC)C2OC(O)(C(=O)C(=O)N3CCCCC3C(=O)OC(C(C)=CC3CCC(O)C(O)C3)C(C)C(O)CC1=O)C(C)CC2O (stereo not drawn) [MVI, 13,31-O-didesmethyl-tacrolimus]
–	does not bind	strong binding	C=CCC1C=C(C)CC(C)CC(OC)C2OC(O)(C(=O)C(=O)N3CCCCC3C(=O)OC(C(C)=CC3CCC(O)C(OC)C3)C(C)C(O)CC1=NO)C(C)CC2OC (stereo not drawn) [tacrolimus C22 oxime]

Structure (SMILES)	cross-reactivity with monoclonal antibody 14H04 ([1]; spiked metabolite compared with tacrolimus standards)	binding to monoclonal antibody 1E2 (monoclonal antibody 1E2)	binding to monoclonal antibody 14H04 ([1]; 14H04-β-galactosidase conjugate, tacrolimus C22 oxime chrome particles)
C=CCC1C=C(C)CC(C)CC(OC)C2OC(O)(C(=O)C(=O)N3CCCCC3C(=O)OC(C(C)=CC3CCC(O)C(O)C3)C(C)C(O)CC1=O)C(C)CC2OC (stereo not drawn) [31-O-desmethyl, 31-O-desmethyl Tacrolimus]	–	does not decrease binding	–
